Measured values taken from patent publication US11318137B2, “Quinazoline compounds as modulators of Ras signaling” (VANDERBILT UNIVERSITY, priority 2017, dated 2022).

Tests used:
[1] = target: T1, SOS-mediated nucleotide exchange on Ras (Homo sapiens, UniProt Q07889); test: SOS-mediated nucleotide exchange on Ras (BODIPY-GDP fluorescence); type: biochemical; settings: Ras loaded with BODIPY-GDP, GTP and SOS added; EC50 from derived exchange rates
T1 sequence (Q07889 1-1333): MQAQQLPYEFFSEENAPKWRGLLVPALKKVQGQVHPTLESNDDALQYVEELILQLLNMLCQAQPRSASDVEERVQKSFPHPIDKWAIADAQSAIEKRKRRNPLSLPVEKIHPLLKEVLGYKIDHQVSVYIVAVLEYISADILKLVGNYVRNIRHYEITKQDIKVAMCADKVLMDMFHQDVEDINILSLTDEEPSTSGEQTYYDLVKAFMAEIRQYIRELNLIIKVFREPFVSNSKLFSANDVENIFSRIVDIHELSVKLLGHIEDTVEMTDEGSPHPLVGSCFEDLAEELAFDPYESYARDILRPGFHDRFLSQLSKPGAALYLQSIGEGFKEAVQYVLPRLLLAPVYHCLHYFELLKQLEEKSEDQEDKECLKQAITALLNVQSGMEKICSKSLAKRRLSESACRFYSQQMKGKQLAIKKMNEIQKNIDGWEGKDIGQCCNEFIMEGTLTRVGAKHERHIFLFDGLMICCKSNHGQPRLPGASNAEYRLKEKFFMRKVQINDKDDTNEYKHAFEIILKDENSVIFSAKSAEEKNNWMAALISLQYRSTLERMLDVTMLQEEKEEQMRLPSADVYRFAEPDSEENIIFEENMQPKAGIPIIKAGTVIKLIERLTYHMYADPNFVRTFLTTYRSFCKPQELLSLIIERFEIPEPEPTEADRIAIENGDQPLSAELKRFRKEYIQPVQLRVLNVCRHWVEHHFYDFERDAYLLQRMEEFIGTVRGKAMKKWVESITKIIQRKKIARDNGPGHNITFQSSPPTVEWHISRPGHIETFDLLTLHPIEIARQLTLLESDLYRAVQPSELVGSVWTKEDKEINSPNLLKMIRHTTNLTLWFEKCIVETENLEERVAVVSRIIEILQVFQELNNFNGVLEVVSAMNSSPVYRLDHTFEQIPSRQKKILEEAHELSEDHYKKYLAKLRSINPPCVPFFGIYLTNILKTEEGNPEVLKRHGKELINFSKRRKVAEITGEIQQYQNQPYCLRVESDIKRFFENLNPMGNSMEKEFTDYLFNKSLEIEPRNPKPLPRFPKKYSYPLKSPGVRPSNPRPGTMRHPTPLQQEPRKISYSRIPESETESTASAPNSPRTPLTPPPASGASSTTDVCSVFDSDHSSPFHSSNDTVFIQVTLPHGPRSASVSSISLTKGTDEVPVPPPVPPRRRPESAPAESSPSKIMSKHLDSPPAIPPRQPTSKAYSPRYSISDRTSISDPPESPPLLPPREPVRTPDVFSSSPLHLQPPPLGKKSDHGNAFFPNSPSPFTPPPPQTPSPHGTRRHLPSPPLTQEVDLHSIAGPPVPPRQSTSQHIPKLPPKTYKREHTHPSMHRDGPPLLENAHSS
Experimental: A. SOS-Mediated Nucleotide Exchange on Ras
Compounds of the present invention were tested for their ability to modify the rate at which Ras exchanges a labeled nucleotide guanosine diphosphate (GDP) analog for guanosine triphosphate (GTP). Briefly, test compounds, then GTP and the Ras GEF SOS (Son of Sevenless) are added to a buffered solution containing Ras protein loaded with BODIPY-GDP. Changes in fluorescence indicating exchange of the labeled GDP for GTP are monitored over time. Raw fluorescence data was fit to a single exponential decay function and derived rates were plotted as mean values. EC50 values were calculated by plotting mean derived rates as a function of compound concentration and fit using a four-parameter dose-response curve. Full assay details are disclosed in: Burns, M. C.; Sun, Q.; Daniels, R. N.; Camper, D. V.; Kennedy, J. P.; Phan, J.; Olejniczak, E. O.; Lee, T.; Waterson, A. G.; Rossanese, O. W.; Fesik, S. W. “Approach for targeting Ras with small molecules that activate SOS-mediated nucleotide exchange” Proc. Natl. Acad. Sci. 2014; 11(9): 3401-3406. PMCID: PMC3948241.

[2] = target: T2, Son of Sevenless (SOS) (Homo sapiens, UniProt Q07889); test: Binding to SOS, fluorescence polarization anisotropy (FPA) displacement of FITC-conjugated probe; settings: binding affinity calculated from IC50 of FITC-probe displacement, read-out: Binding affinities (binding affinity to SOS)
T2 sequence (Q07889 564-1049 limits assumed): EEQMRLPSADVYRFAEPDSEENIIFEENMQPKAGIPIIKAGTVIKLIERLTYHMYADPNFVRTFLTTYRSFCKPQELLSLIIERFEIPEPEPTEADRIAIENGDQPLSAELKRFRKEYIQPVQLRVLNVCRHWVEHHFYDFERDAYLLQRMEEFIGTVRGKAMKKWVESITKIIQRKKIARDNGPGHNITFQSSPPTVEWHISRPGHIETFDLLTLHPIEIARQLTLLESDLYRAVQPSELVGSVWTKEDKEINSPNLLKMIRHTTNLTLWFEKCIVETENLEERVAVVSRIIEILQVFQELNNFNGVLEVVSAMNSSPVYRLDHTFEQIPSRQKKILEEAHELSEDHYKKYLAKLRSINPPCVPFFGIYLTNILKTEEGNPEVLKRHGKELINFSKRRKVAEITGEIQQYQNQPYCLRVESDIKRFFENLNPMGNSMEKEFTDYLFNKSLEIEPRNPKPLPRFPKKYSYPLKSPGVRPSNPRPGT
Experimental: Compounds of the present invention were tested for their ability to the Ras guanine exchange factor (GEF) Son of Sevenless (SOS). Binding to SOS was measured using a Fluorescence polarization anisotropy (FPA) assay that assesses the ability of a test compound to displace a fluorescent FITC-conjugated compound. Briefly, the labeled probe compound is incubated with SOS in buffer. Changes in anisotropy indicative of displacement of the labeled probe for a test compound are assessed over a dose range of test compound. Data was analyzed by plotting fluorescence anisotropy values as a function of compound concentration. IC50 values were determined using a four-parameter dose-response (variable slope) and binding affinities were calculated from this IC50 value. This assay is performed in a method analogous to the assay disclosed in: Burns, M. C.; Sun, Q.; Daniels, R. N.; Camper, D. V.; Kennedy, J. P.; Phan, J.; Olejniczak, E. O.; Lee, T.; Waterson, A. G.; Rossanese, O. W.; Fesik, S. W. “Approach for targeting Ras with small molecules that activate SOS-mediated nucleotide exchange” Proc. Natl. Acad. Sci. 2014; 11(9): 3401-3406. PMCID: PMC3948241.

EC50 [1] [µM]	Ki [2] [µM]	SMILES
> 30	> 5	C[C@@H](Nc1nc(Nc2ccc(F)c(Cl)c2)nc2c(NCCO)cccc12)C1CC1 [Example 54, (R)-2-((2-((3-chloro-4-fluorophenyl)amino)-4-((1-cyclopropylethyl)amino)quinazolin-8-yl)amino)ethan-1-ol]
> 30	> 5	C[C@@H](Nc1nc(Nc2ccc(F)c(Cl)c2)nc2c(C#N)cccc12)C1CC1 [Example 55, (R)-2-((3-chloro-4-fluorophenyl)amino)-4-((1-cycloprprpylethyl)amino)quinazoline-8-carbonitrile]
1 to 5	> 5	C[C@@H](Nc1nc(Nc2ccc(F)c(Cl)c2)nc2c(CN)cccc12)C1CC1 [Example 56, (R)-8-(aminomethyl)-N^2-(3-chloro-4-fluorophenyl)-N^4-(1-cyclopropylethyl)quinazoline-2,4-diamine]
1 to 5	1 to 5	C[C@@H](Nc1nc(Nc2ccc(F)c(Cl)c2)nc2c(CCN)cccc12)C1CC1 [Example 60, (R)-8-(2-aminoethyl)-N^2-(3-chloro-4-fluorophenyl)-N^4-(1-cyclopropylethyl)quinazoline-2,4-diamine]
< 1	1 to 5	C[C@@H](Nc1nc(Nc2ccc(F)c(Cl)c2)nc2c(C3=CCNCC3)cccc12)C1CC1 [Example 62, (R)—N^2-(3-chloro-4-fluorophenyl)-N^4-(1-cyclopropylethyl)-8-(1,2,3,6-tetrahydropyridin-4-yl)quinazoline-2,4-diamine]
> 30	> 5	C[C@@H](Nc1nc(NCCc2c[nH]cn2)nc2c(C3=CCNCC3)cccc12)C1CC1 [Example 63, (R)—N^2-(2-(1H-imidazol-4-yl)ethyl)-N^4-(1-cyclopropylethyl)-8-(1,2,3,6-tetrahydropyridin-4-yl)quinazoline-2,4-diamine]
5 to 30	> 5	C[C@@H](Nc1nc(Nc2ccc(F)c(Cl)c2)nc2c(NCCN)cccc12)C1CC1 [Example 65, (R)—N^8-(2-aminoethyl)-N^2-(3-chloro-4-fluorophenyl)-N^4-(1-cyclopropylethyl)quinazoline-2,4,8-triamine]
5 to 30	> 5	C[C@@H](Nc1nc(Nc2ccc(F)c(Cl)c2)nc2c(NCCCN)cccc12)C1CC1 [Example 66, (R)—N^8-(3-aminopropyl)-N^2-(3-chloro-4-fluorophenyl)-N^4-(1-cyclopropylethyl)quinazoline-2,4,8-triamine]
5 to 30	> 5	C[C@@H](Nc1nc(Nc2ccc(F)c(Cl)c2)nc2c(NCCN(C)C)cccc12)C1CC1 [Example 67, (R)—N^2-(3-chloro-4-fluorophenyl)-N^4-(1-cyclopropylethyl)-N8-(2-(dimethylamino)ethyl)quinazoline-2,4,8-triamine]
1 to 5	1 to 5	NCCc1cccc2c(NC(C3CC3)C3CC3)nc(NCC3CCCCC3)nc12 [Example 74, 8-(2-aminoethyl)-N^2-(cyclohexylmethyl)-N^4-(dicyclopropylmethyl)quinazoline-2,4-diamine]
1 to 5	< 1	C[C@@H](Nc1nc(NCC2CCCCC2)nc2c(CCN)cccc12)C1CC1 [Example 77]
1 to 5	> 5	C[C@@H](Nc1nc(NCC2CCCCC2)nc2c(C3=CCNCC3)cccc12)C(C)(C)C [Example 81, (R)—N^2-(cyclohexylmethyl)-N^4-(3,3-dimethylbutan-2-yl)-8-(1,2,3,6-tetrahydropyridin-4-yl)quinazoline-2,4-diamine]
5 to 30	> 5	C[C@@H](Nc1nc(Nc2ccc(F)c(Cl)c2)nc2c(CCN)cccc12)C(C)(C)C [Example 82, (R)-8-(2-aminoethyl)-N^2-(3-chloro-4-fluorophenyl)-N^4-(3,3-dimethylbutan-2-yl)quinazoline-2,4-diamine]
5 to 30	1 to 5	C[C@@H](Nc1nc(NCC2CCCCC2)nc2c(CCN)cccc12)C(C)(C)C [Example 84, (R)-8-(2-aminoethyl)-N^2-(cyclohexylmethyl)-N^4-(3,3-dimethylbutan-2-yl)quinazoline-2,4-diamine]
5 to 30	1 to 5	C[C@@H](Nc1nc(NCc2cccc(Cl)c2F)nc2c(CCN)cccc12)C(C)(C)C [Example 85, (R)-8-(2-aminoethyl)-N^2-(3-chloro-2-fluorobenzyl)-N^4-(3,3-dimethylbutan-2-yl)quinazoline-2,4-diamine]
5 to 30	> 5	C[C@@H](Nc1nc(NCC2CCCCC2)nc2c(CN)cccc12)C(C)(C)C [Example 86, (R)-8-(aminomethyl)-N^2-(cyclohexylmethyl)-N^4-(3,3-dimethylbutan-2-yl)quinazoline-2,4-diamine]
5 to 30	> 5	C[C@@H](Nc1nc(NCc2cccc(Cl)c2F)nc2c(CN)cccc12)C(C)(C)C [Example 87, (R)-8-(aminomethyl)-N^2-(3-chloro-2-fluorobenzyl)-N^4-(3,3-dimethylbutan-2-yl)quinazoline-2,4-diamine]
1 to 5	1 to 5	Cc1cc(F)cc(Nc2nc(N[C@H](C)c3cccs3)c3cccc(C4=CCNCC4)c3n2)c1 [Example 89, (R)—N^2-(3-fluoro-5-methylphenyl)-8-(1,2,3,6-tetrahydropyridin-4-yl)-N^4-(1-(thiophen-2-yl)ethyl)quinazoline-2,4-diamine]
1 to 5	1 to 5	C[C@@H](Nc1nc(NCC2CCCCC2)nc2c(C3=CCNCC3)cccc12)c1cccs1 [Example 90, (R)—N^2-(cyclohexylmethyl)-8-(1,2,3,6-tetrahydropyridin-4-yl)-N^4-(1-(thiophen-2-yl)ethyl)quinazoline-2,4-diamine]
